{"source": "paper PMC10669542", "about": "“Ascorbate Peroxidase 2 (APX2) of Chlamydomonas Binds Copper and Modulates the Copper Insertion into Plastocyanin” (Antioxidants, 2023)", "target": "T1, APX2 (recombinant His-tagged APX2) (Chlamydomonas reinhardtii, UniProt A0A2K3DPX4)", "T1 construct": "gene CHLRE_06g285150v5", "T1 sequence (A0A2K3DPX4 97-337)": "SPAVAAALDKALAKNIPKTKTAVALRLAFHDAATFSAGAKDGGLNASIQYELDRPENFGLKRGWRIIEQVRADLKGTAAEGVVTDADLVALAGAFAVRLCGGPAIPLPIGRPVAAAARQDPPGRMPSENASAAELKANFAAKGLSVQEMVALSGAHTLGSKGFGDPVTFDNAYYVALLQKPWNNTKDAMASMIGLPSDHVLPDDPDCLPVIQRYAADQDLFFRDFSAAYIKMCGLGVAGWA", "experiment": "peroxidase assay, tetraguaiacol formation at […] nm", "format": "biochemical", "conditions": "electron donor, 10 mM; H2O2 varied 0-1 mM; 0.2 uM enzyme; 20 mM potassium phosphate pH 6.0", "data": [{"compound": "COc1ccccc1O", "note": "[guaiacol]", "values": [{"measurement": "peroxidase assay, tetraguaiacol formation at 470 nm", "value": "The enzyme demonstrated activity in the presence of guaiacol, a well-known electron donor for peroxidases"}]}]}
